Drawing on paper PMC6368574, “Probing the Inhibition of Microtubule Affinity Regulating Kinase 4 by N-Substituted Acridones” (Scientific Reports, 2019), this text covers IC50 for five molecules.

Like-named read-outs stand apart in the source and are kept apart here.

The target of one experiment is T1, recombinant MARK4 (Homo sapiens, UniProt Q96L34).
T1 construct: made in house; host or cells: bacterial cells (Luria-Bertani broth, IPTG induction)
T1 sequence (Q96L34 1-752): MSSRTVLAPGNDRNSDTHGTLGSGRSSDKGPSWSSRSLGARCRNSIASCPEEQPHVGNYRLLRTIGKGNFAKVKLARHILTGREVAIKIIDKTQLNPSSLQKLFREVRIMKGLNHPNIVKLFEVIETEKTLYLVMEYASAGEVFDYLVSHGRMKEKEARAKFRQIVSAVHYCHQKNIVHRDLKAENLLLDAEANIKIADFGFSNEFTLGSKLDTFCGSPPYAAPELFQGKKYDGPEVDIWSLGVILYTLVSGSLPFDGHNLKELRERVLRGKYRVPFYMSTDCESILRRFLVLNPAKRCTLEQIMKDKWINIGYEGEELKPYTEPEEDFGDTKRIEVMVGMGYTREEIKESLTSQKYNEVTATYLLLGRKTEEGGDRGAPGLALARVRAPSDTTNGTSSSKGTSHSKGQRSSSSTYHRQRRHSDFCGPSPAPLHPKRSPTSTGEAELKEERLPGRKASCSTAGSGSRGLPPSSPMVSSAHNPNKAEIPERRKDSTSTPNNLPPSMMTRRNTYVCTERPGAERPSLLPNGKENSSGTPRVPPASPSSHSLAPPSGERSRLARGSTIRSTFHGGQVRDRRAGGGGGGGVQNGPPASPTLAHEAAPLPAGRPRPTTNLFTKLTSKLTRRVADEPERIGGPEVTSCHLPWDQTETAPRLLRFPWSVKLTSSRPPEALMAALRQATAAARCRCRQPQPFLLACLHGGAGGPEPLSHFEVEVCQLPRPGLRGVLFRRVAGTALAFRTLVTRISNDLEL
Description: ATPase enzyme inhibition assay (Malachite Green). It counts as biochemical. As to the method: To evaluate the inhibition activity of synthesized acridone derivatives against recombinant MARK4, ATPase enzyme inhibition assay was performed (Table S3). […] Our studies were initiated by replacing the ester group of 5 with sterically and electronically diverse amines affording the corresponding amides 7a–j, in order to establish favorable interactions with residues Ala135, Val70, Asp196 and/or Glu182. […] In this case, the docking studies indicate a better fit of 7h compared with 7g in the active site of MARK4 with a binding energy of −9.5 kcal/mol and a stronger predicted hydrogen bond with Ala135 (3.06 Å for 7h, 3.19 Å for 7g).
Enzyme activity of MARK4 was evaluated with the help of standard Malachite Green (Biomol Green reagent, Enzo Life Sciences) microtitre-plate assay as described earlier. Estimated amount of MARK4 (200 ng) and 20 µM ATP as a substrate were incubated for 10–15 min at 25 °C with increasing concentrations (0–20 µM) of synthesized acridone derivatives, in 20 mM Tris buffer, pH 8.0. Reaction was terminated by the adding 100 µl of Biomol Green reagent and absorbance of final reaction products was recorded at 620 nm in a multiplate ELSIA reader (BioRad). In order to quantify the hydrolyzed phosphate, inorganic phosphate standard curve were prepared from the phosphate standard solutions as supplied by the manufacturer (Biomol Green reagent, Enzo Life Sciences). All data points represent triplicate measurements from at least three independent experiments.

Another experiment deals with MCF-7 cells. Description: MTT cell viability assay, MCF-7. Conditions: Homo sapiens, MCF7. It counts as cell-based. As to the method:
Initially, all synthesized acridone derivatives were evaluated for their cytotoxicity potential on MCF-7, HepG2 and HEK293 cell lines by MTT assay. These synthesized acridone derivatives were screened in the concentration range of 0–200 µM, for 24 and 48 h. […] It was also interesting that in the studied […] concentration range these compounds don’t show considerable cytotoxicity towards HEK293 cell lines. […] Thus, compounds 5, 7b, 7d, 7f and 7h were taken for further cell based studies such as apoptosis and reactive oxygen species (ROS) production.
To study the effect of synthesized acridone derivatives on cell viability and proliferation, a standard MTT method was carried out. Cells were plated (8000–9000/well) in a 96-well plate and incubated overnight. On the next day, cells were treated with increasing concentrations (0.1–80 μM) of synthesized acridone derivatives in a final volume of 200 µl for 48 h at 37 °C in a humidified chamber. At the end of treatment time point, 20 µl of MTT solution (from 5 mg/ml stock solution in phosphate buffer saline, pH 7.4) was added to each well and incubated further for 4–5 h at 37 °C in the CO2 incubator. After stipulated time the supernatant was aspirated and the colored formazan crystal produced as a result of MTT reduction was dissolved in 100 µl of DMSO. The absorbance (A) of colored product was then measured at 570 nm on a multiplate ELISA reader (BioRad). The percentage of viable cells was calculated and used to estimate the IC50 (50% inhibitory concentration) values for each acridone derivative. For cell proliferation studies paclitaxel has been taken as positive control.
(Tetrazolium dyes change colour on reduction, which living cells bring about.)

Where [1] appears, read: Table 1, from enzyme inhibition, read-out: IC50, (µM), MARK4.
Setting [2] is: Table 1, from MTT, read-out: IC50, (µM), MCF-7.
Setting [3] is: ATPase inhibition, 20 µM ATP, read-out: IC50 against MARK4.
[4] abbreviates: MTT, read-out: IC50 for MCF-7 cells.

Broadly, the IC50 is the point on the concentration scale where inhibition reaches its midpoint. As to `Cc1ccc2c(c1)c(=O)c1ccccc1n2CC(=O)NCc1ccccc1` [Compound 7b, N-benzyl-2-(2-methyl-9-oxoacridin-10(9H)-yl)acetamide], the results for the 50% inhibitory concentration (IC50) at recombinant MARK4 (setting [1]) and in the experiment on MCF-7 cells (setting [2]) were 1.8 ± 0.04 µM and 5.2 ± 1.2 µM, respectively.
In the case of `COC(=O)Cn1c2ccccc2c(=O)c2cc(C)ccc21` [Compound 5, Methyl 2-(2-methyl-9-oxoacridin-10(9H)-yl)acetate], the concentration for half-maximal inhibition (IC50) was 14.1 ± 1.02 µM on recombinant MARK4 (setting [3]) and 9.4 ± 1 µM in the experiment on MCF-7 cells (setting [4]).
Turning to `COc1ccc(CNC(=O)Cn2c3ccccc3c(=O)c3cc(C)ccc32)cc1` [Compound 7d, N-(4-methoxybenzyl)-2-(2-methyl-9-oxoacridin-10(9H)-yl)acetamide], the 50% inhibitory concentration (IC50) on recombinant MARK4 (setting [1]) amounted to 2.2 ± 0.05 µM; in the experiment with MCF-7 cells (setting [2]), 6.3 ± 1.2 µM.
As to `COc1ccccc1NC(=O)Cn1c2ccccc2c(=O)c2cc(C)ccc21` [Compound 7h, N-(2-methoxyphenyl)-2-(2-methyl-9-oxoacridin-10(9H)-yl)acetamide], the values for the concentration for half-maximal inhibition (IC50) at recombinant MARK4 (setting [3]) and in the experiment on MCF-7 cells (setting [4]) were 12.1 ± 1.1 µM and 7.2 ± 1.33 µM, respectively.
With `Cc1ccc(NC(=O)Cn2c3ccccc3c(=O)c3cc(C)ccc32)cc1` [Compound 7f, 2-(2-Methyl-9-oxoacridin-10(9H)-yl)-N-(p-tolyl)acetamide], the IC50 turned out to be 4.5 ± 0.52 µM on recombinant MARK4 (setting [1]) and 5.8 ± 1.4 µM in the experiment on MCF-7 cells (setting [2]).
